Measurements reported in patent US20230357271A1, “MACROCYCLIC COMPOUND” (Asahi Kasei Pharma Corporation, priority 2020, published 2023).
Read-outs that look alike come from different tables or passages of the source.

What was measured:
[1] = 14-membered ring
human IRAK-4 = human IRAK-4 (Homo sapiens (Human), UniProt Q9NWZ3); assay: Measurement of human IRAK-4 inhibitory activity (TR-FRET); type: biochemical; conditions: 1 nM IRAK-4, 0.5 µM peptide substrate, 10 µM ATP, 23° C., 30 minutes
Protocol: For the measurement of the activity of the human IRAK-4 (Invitrogen, Cat. PV3362), phosphorylation of the IRAK-4 peptide substrate (biotin-KKKKRFSFKKSFKC) by the enzyme in the presence of 10 µM ATP (Sigma-Aldrich, Cat. A7699) was measured by the TR-FRET method. The enzymatic reaction was performed in a reaction buffer containing 50 mM HEPES (pH 7.2), 1 mM DTT, 0.1 mM Na3VO4, 5 mM MgCl2, 1 mM MnCl2, and 0.1% bovine serum albumin. For the measurement of the IRAK-4 inhibitory activity, a test compound was added to the reaction buffer containing 1 nM IRAK-4, 0.5 µM peptide substrate, and 10 µM ATP, and the mixture was incubated at 23° C. for 30 minutes. Then, a detection solution containing an antibody labeled with europium cryptate (0.3 µg/mL, the antibody was prepared by using the IRAK-4 peptide substrate as the antigen), streptavidin-XL665 (2 µg/mL, CisBio, Cat. 610SAXLB), 50 mM HEPES (pH 7.2), 0.1% BSA, 120 mM KF, and 66.7 mM EDTA (all the concentrations of the reagents are final concentrations) was added to terminate the reaction, and then the mixture was further incubated at 23° C. for 60 minutes. Fluorescence intensity was measured at wavelengths of 665 nm and 620 nm with a microplate reader, and the enzymatic activity was calculated as the ratio of fluorescence intensities at 665 nm and 620 nm (665 nm/620 nm).
When the measurement was performed in multiplicate, the results are represented with average values.

[2] = system: human acute monocytic leukemia cell strain THP-1; assay: LPS-stimulated TNFα production inhibition test using THP-1 cells; type: cell-based; conditions: LPS 2.5 ng/mL, TNFα by HTRF
Protocol: By the THP-1 assay, influence of a test compound on the TNFα production induced by LPS stimulation can be evaluated. The THP-1 cells (ATCC, Cat. TIB-202) were inoculated on a 96-well plate at a density of 1 × 10^5 cells/160 µL/well, a test compound was added in a volume of 20 µL, and the plate was incubated at 37° C. for 1 hour in a 5% CO2 incubator. Then, LPS in a volume of 20 µL (final concentration 2.5 ng/mL, Sigma, Cat. L2630) was added, and the plate was further incubated for 4 hours. After the incubation, the plate was centrifuged, and 100 µL of the supernatant was taken from each well, and used for evaluation of the amount of TNFα using HTRF (Cisbio, Cat. 62TNFPEB). In the measurement of the amount of TNFα, the supernatant was diluted twice with the medium, and then added to wells of a 384-well plate in a volume of 10 µL, then anti-TNFα-cryptate (5 µL), and anti-TNFα-XL665 (5 µL) were added, and the plate was left standing overnight. The fluorescence intensity ratio for the wavelengths of 620 and 665 nm (620 nm/665 nm) was measured with a microplate reader, and the amount of TNFα in the supernatant was calculated by using a calibration curve. The TNFα production suppression ratio observed with no addition of LPS was defined to be 100%, the TNFα production suppression ratio observed with no addition of the test compound was defined to be 0%, and IC50 of the test compound was calculated by using the 4-parameter logistic model of the data analysis software XLfit (ID Business Solutions Ltd.).
When the measurement was performed in multiplicate, the results are represented with average values. The values were rounded to the fourth decimal place.

Sequence of human IRAK-4 (Q9NWZ3 whole entry): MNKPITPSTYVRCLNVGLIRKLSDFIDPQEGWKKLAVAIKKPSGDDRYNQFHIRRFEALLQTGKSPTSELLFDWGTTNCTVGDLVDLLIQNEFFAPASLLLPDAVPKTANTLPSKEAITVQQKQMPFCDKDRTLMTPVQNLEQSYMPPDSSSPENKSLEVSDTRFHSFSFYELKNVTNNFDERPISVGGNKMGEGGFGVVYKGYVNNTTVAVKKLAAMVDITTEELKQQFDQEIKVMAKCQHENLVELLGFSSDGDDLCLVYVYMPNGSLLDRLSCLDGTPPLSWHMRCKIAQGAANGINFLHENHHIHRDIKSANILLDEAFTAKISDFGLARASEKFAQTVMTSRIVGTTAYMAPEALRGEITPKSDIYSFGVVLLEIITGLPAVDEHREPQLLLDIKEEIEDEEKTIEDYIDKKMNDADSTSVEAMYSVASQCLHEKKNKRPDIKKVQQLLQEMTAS

Row | Structure (SMILES) | IC50 (human IRAK-4) [nM] | IC50 ([2]; Homo sapiens, THP-1, 4 h) [µM] | other results
1 | CC(C)(C)OC(=O)N1CC[C@H]2C[C@H]1C(=O)OCCCOc1c(OCc3ccccc3)ccc3ncc(cc13)N2 |  |  | ring closure, isolated yield ([1]; from CC(C)(C)OC(=O)N1CC[C@H](N)C[C@H]1C(=O)OCCCOc1c(OCc2ccccc2)ccc2ncc(Br)cc12, cn_pd bond, tBuXPhos Pd G3/Cs2CO3, 1,4-dioxane, 98.8 mM, 120.0 °C, 72.0 h): 7%; ring closure, yield of all isomers (from CC(C)(C)OC(=O)N1CC[C@H](N)C[C@H]1C(=O)OCCCOc1c(OCc2ccccc2)ccc2ncc(Br)cc12, cn_pd bond, tBuXPhos Pd G3 / Cs2CO3, 1,4-dioxane, 98.8 mM, 120.0 °C, 72.0 h): 7%
2 | CC(C)(C)OC(=O)N1CC[C@H]2C[C@H]1C(=O)NCCCOc1c(OCc3ccccc3)ccc3ncc(cc13)O2 |  |  | ring closure, isolated yield ([1]; from CC(C)(C)OC(=O)N1CC[C@@H](O)C[C@H]1C(=O)NCCCOc1c(OCc2ccccc2)ccc2ncc(O)cc12, ether bond, PPh3/DTBAD, toluene, 11.0 mM, 1.5 h): 72%
3 | CC1CC2C[C@@H](C(=O)NCC/C=C/c3c(OCc4ccccc4)ccc4ncc(cc34)N2)N1C (stereo partly shown) |  |  | ring closure, yield of all isomers (from CC1CC(N)C[C@@H](C(=O)NCC/C=C/c2c(OCc3ccccc3)ccc3ncc(Br)cc23)N1C, cn_pd bond, Pd2(dba)3 / XPhos / sodium phenoxide, 1,4-dioxane, 97.4 mM, 101.0 °C, 14.0 h): 75%
4 | CC1CC2C[C@@H](C(=O)NCCC=Cc3c(OCc4ccccc4)ccc4ncc(cc34)N2)N1C (stereo partly shown) |  |  | ring closure, isolated yield ([1]; from CC1CC(N)C[C@@H](C(=O)NCC/C=C/c2c(OCc3ccccc3)ccc3ncc(Br)cc23)N1C, cn_pd bond, Pd2(dba)3/XPhos/NaOPh, 1,4-dioxane, 97.4 mM, 14.0 h): 75%
5 | CN1CCC2CC1(C)C(=O)NCC(F)COc1c(OCc3ccccc3)ccc3ncc(cc13)N2 (stereo not shown) |  |  | ring closure, yield of all isomers (from CN1CCC(N)CC1(C)C(=O)NCC(F)COc1c(OCc2ccccc2)ccc2ncc(Br)cc12, cn_pd bond, Pd2(dba)3 / XPhos / sodium phenoxide, 1,4-dioxane, 107.0 mM, 101.0 °C, 14.0 h): 32%
6 | CCCOCc1ncc(-c2ccc3ncc4nc3c2OCCCNC(=O)[C@@H]2C[C@H](CCN2CC)N4)cn1 [a-01-35] | 2.84 | 0.178 | 
7 | CCCOCc1ncc(-c2ccc3ncc4nc3c2OCC(F)CNC(=O)[C@@H]2C[C@H](CCN2C)N4)cn1 (stereo partly shown) [a-01-26] | 1.41 |  | IC50 ([2]; 4 hours): 0.142 µM
8 | CC1CNC(=O)[C@@H]2C[C@H](CCN2C)Nc2cnc3ccc(-c4cncnc4)c(c3n2)OC1 (stereo partly shown) [a-01-36] | 8.86 | 0.182 | 
9 | [2H]C([2H])([2H])N1CC[C@H]2C[C@H]1C(=O)NCC(F)COc1c(-c3cnc(COCCC)nc3)ccc3ncc(cc13)N2 (stereo partly shown) [a-02-06] | 2 | 0.024 | 
10 | Cc1ncc(-c2ccc3ncc4nc3c2OCC2(CC2)COC(=O)[C@@H]2C[C@H](CCN2C)N4)cn1 [a-01-33] | 4.79 | 0.17 | 
11 | CCCOCc1ncc(-c2ccc3ncc4cc3c2OCC(F)CNC(=O)[C@@H]2C[C@H](CC(C)N2C)N4)cn1 (stereo partly shown) [a-02-01] | 2.33 | 0.012 | 
12 | Cc1ncc(-c2ccc3ncc4nc3c2OCCCNC(=O)[C@@H]2C[C@H](CCN2C)N4)cn1 [a-01-24] | 2.48 | 0.14 | 
13 | CCCOCc1ncc(-c2ccc3ncc4nc3c2OCCC(F)CNC(=O)[C@@H]2C[C@H](CCN2C)N4)cn1 (stereo partly shown) [a-01-31] | 3.42 | 0.163 | 
14 | Cc1ncc(-c2ccc3ncc4nc3c2OCC(F)(F)CNC(=O)[C@@H]2C[C@H](CCN2C)N4)cn1 [a-01-28] | 4.04 | 0.149 | 
15 | Cc1ncc(-c2ccc3ncc4cc3c2/C=C/CCNC(=O)[C@@H]2CC(CC(C)N2C)N4)cn1 (stereo in doubt) [a-02-17, (3^2S,E)-3^1,3^6-Dimethyl-1^6-(2-methylpyrimidin-S-yl)-2,5-diaza-1 (3,5)-qunolina-3(4,2)-piperidinacyclononaphan-8-en-4-one] | 1.76 | 0.066 | 
16 | CCCOCc1ncc(-c2ccc3ncc4nc3c2OCCCN(C)C(=O)[C@@H]2C[C@H](CCN2C)N4)cn1 [a-01-38] | 6.73 | 0.199 | 

Row | Structure (SMILES) | IC50 (human IRAK-4) [nM] | IC50 ([2]; Homo sapiens, THP-1, 4 h) [µM] | other results
17 | Cc1ncc(-c2ccc3ncc4cc3c2OCC(F)CNC(=O)[C@@H]2C[C@H](CC(C)N2C)N4)cn1 (stereo partly shown) [a-02-09] | 0.86 | 0.036 | 
18 | CCCOCc1ncc(-c2ccc3ncc4nc3c2OCC(F)COC(=O)[C@@H]2C[C@H](CCN2C)N4)cn1 (stereo partly shown) [a-01-06] | 2.53 | 0.05 | 
19 | CC(C)(C)OC(=O)N1CC[C@H]2C[C@H]1C(=O)NCCCOc1c(Br)ccc3ncc(nc13)N2 |  |  | ring closure, isolated yield ([1]; from CC(C)(C)OC(=O)N1CC[C@H](Nc2cnc3ccc(Br)c(O)c3n2)C[C@H]1C(=O)NCCCO, ether bond, PPh3/DTBAD, THF, 5.0 mM, 25.0 °C, 2.0 h): 70%; ring closure, isolated yield ([1]; from CC(C)(C)OC(=O)N1CC[C@H](Nc2cnc3ccc(Br)c(O)c3n2)C[C@H]1C(=O)NCCCO, ether bond, PPh3/DTBAD, THF, 5.0 mM, 25.0 °C, 12.0 h): 61%; ring closure, yield of all isomers (from CC(C)(C)OC(=O)N1CC[C@H](Nc2cnc3ccc(Br)c(O)c3n2)C[C@H]1C(=O)NCCCO, ether bond, PPh3 / di-tert-butyl azodicarboxylate, tetrahydrofuran, 4.91 mM, 25.0 °C, 12.0 h): 61%; ring closure, yield of all isomers (from CC(C)(C)OC(=O)N1CC[C@H](Nc2cnc3ccc(Br)c(O)c3n2)C[C@H]1C(=O)NCCCO, ether bond, PPh3 / di-tert-butyl azodicarboxylate, tetrahydrofuran, 4.92 mM, 25.0 °C, 2.0 h): 70%
20 | CN1CC[C@H]2C[C@H]1C(=O)NCC1(CCC1)COc1c(-c3cncnc3)ccc3ncc(nc13)N2 [a-01-29] | 4.14 | 0.15 | 
21 | CCC(O)COCc1ncc(-c2ccc3ncc4nc3c2OCCCNC(=O)[C@@H]2C[C@H](CCN2C)N4)cn1 (stereo partly shown) [a-01-17] | 3.04 | 0.099 | 
22 | CN1CC[C@H]2C[C@H]1C(=O)NCCCCOc1c(-c3cncnc3)ccc3ncc(nc13)N2 [a-01-30] | 2.8 | 0.162 | 
23 | CN1CC[C@H]2C[C@H]1C(=O)NCCCOc1c(-c3cnc(CO)s3)ccc3ncc(nc13)N2 [a-01-11] | 0.79 | 0.073 | 
24 | CCCOCc1ncc(-c2ccc3ncc4nc3c2OCCCCCNC(=O)[C@@H]2C[C@H](CCN2C)N4)cn1 [a-01-27] | 4.25 | 0.145 | 
25 | Cc1ncc(-c2ccc3ncc4nc3c2OCC(F)CNC(=O)[C@@H]2C[C@H](CCN2C)N4)cn1 (stereo partly shown) [a-01-19] | 1.6 |  | IC50 ([2]; 4 hours): 0.113 µM
26 | CC(C)(C)OC(=O)N1CC[C@H]2C[C@H]1C(=O)NCCCCc1c(OCc3ccccc3)ccc3ncc(cc13)N2 |  |  | ring closure, yield of all isomers (from CC(C)(C)OC(=O)N1CC[C@H](N)C[C@H]1C(=O)NCCCCc1c(OCc2ccccc2)ccc2ncc(Br)cc12, cn_pd bond, tBuBrettPhos Pd G3 / phosphazene base P2-Et, toluene, 29.3 mM, 25.0 °C): 39%
27 | CCCOCc1ncc(-c2ccc3ncc4nc3c2OCCCC2CCCN2C(=O)[C@@H]2C[C@H](CCN2C)N4)cn1 (stereo partly shown) [a-01-10] | 43.4 | 0.068 | 
28 | CN1CC[C@H]2C[C@H]1C(=O)NCC(F)(F)COc1c(-c3cnc(CO)s3)ccc3ncc(nc13)N2 [a-01-22] | 0.89 | 0.118 | 
29 | CCCOCc1ncc(-c2ccc3ncc4cc3c2OCCCOC(=O)[C@@H]2C[C@H](CCN2)N4)cn1 [a-02-05] | 2.47 | 0.023 | 
30 | CCCOCc1ncc(-c2ccc3ncc4cc3c2OCC(F)CNC(=O)[C@@H]2C[C@H](CCN2C)N4)cn1 (stereo partly shown) [a-02-02, (3^2S,3^4S)-7-Fluoro-3^1-methyl-1^6-(2-(propoxymethyl)pyrimidin-5-yl)-9-oxa-2,5-diaza-1(3,5)-qunolina-3(4,2)-piperidinacyclononaphan-4-one] | 1.09 | 0.013 | 
31 | CN1CC[C@H]2C[C@H]1C(=O)NCC(C)(C)COc1c(-c3cncnc3)ccc3ncc(nc13)N2 [a-01-40] | 14.8 | 0.253 | 
32 | CN1CC[C@H]2C[C@H]1C(=O)NCCCOc1c(-c3cnc(COCC4CC4)nc3)ccc3ncc(nc13)N2 [a-01-21] | 2.29 | 0.117 | 
